Measurements as given in US20020041880A1, “Method of treating cancer” (priority 2000, published 2002).

| melting point [°C] | SMILES |
| --- | --- |
| 149 to 151 | c1cc(-c2cnn3cc(-c4ccc(OCCN5CCOCC5)cc4)cnc23)cs1 [Example 3, 3-(3-thienyl)-6-(4-(2-(4-morpholinyl)ethoxy)phenyl)pyrazolo(1,5-A)pyrimidine] |
| 141 to 143 | c1cc(-c2cnn3cc(-c4ccc(OCCN5CCCCC5)cc4)cnc23)cs1 [Example 4, 6-[4-(2-piperidin-1-yl-ethoxy)-phenyl]-3-thiophen-3-yl-pyrazolo[1,5-a]pyrimidine] |
